Data on 19 compounds can be found in ChEMBL document CHEMBL5260816, “Synthesis and biological evaluation of the natural product komaroviquinone and related compounds aiming at a potential therapeutic lead compound for high-risk multiple myeloma” (Bioorg Med Chem Lett, 2017).

The nature of data set [1]: Cytotoxicity against human MUM24 cells assessed as reduction in cell viability incubated for 48 hrs by MTT assay. The conditions noted are these: MUM24, 48 h. The format is functional, cell-based.
Data set [2] is described as follows: Toxicity in ICR mouse bone marrow cells assessed as inhibition of cell differentiation incubated for 14 days by colony forming cell assay. The format is cell-based. The following applies: 336 h, time 14 day.
A short description of data set [3]: Toxicity in ICR mouse bone marrow cells assessed as inhibition of cell differentiation at higher concentration incubated for 14 days by colony forming cell assay. The format is cell-based. The conditions noted are these: 336 h, time 14 day.
Data set [4] in a line: Toxicity in ICR mouse bone marrow cells assessed as inhibition of cell differentiation at 1 uM incubated for 14 days by colony forming cell assay. The format is cell-based. The conditions noted are these: 336 h, time 14 day.

Consider `COc1cc(C[C@@]23CCCC(C)(C)[C@@H]2CC(=O)O3)c(OC)c(OC)c1C(C)C`, for which, in data set [1], the half-inhibitory concentration (IC50) worked out at 4.97 µM.
`COC1=C(C(C)C)C(=O)C=C(C[C@@]23CCCC(C)(C)[C@@H]2CC(=O)O3)C1=O`: the IC50 in data set [1] was below 3 µM.
Take `COC1=C(C(C)C)C(=O)C=C(Cc2ccccc2)C1=O`: the IC50 in data set [1] was below 3 µM.
`COC1=C(C(C)C)C(=O)C=C(CNC(=O)C2CCCCC2)C1=O`: the IC50 in data set [1] was below 3 µM.
Same read-out and setting: next, `COC1=C(C(C)C)C(=O)C=C(COC(C)C)C1=O`: below 3 µM.
For `COC1=C(C(C)C)C(=O)C=C(COC(Cn2cncn2)c2ccc(F)cc2F)C1=O` (centres undefined), the IC50 in data set [1] worked out at 3.31 µM.
In the case of `COC1=C(C(C)C)C(=O)C=C(CC(O)(Cn2cncn2)c2ccc(F)cc2F)C1=O` (centres undefined), in data set [2], the Activity entry is “Toxic”. In data set [1], the IC50 came out at 2.49 µM.
As to `COc1c2c(c(OC)c(C(C)C)c1OC)C(=O)CCC2`, the IC50 in data set [1] is above 30 µM.
For `COc1c(O)c2c(c(O)c1C(C)C)C(=O)C[C@H]1C(C)(C)CCC[C@]1(O)C2`, in data set [2], the Activity entry is given as “Toxic”. The IC50 in data set [1] was 6.13 µM.
With `COc1cc(CC(O)(Cn2cncn2)c2ccc(F)cc2F)c(OC)c(OC)c1C(C)C` (centres undefined), the Activity entry in data set [3] is “Non-Toxic”. Moreover, the IC50 in data set [1] turned out to be 9.85 µM.
As for `COc1c2c(c(OC)c(C(C)C)c1OC)C(=O)CCCC2`, the IC50 in data set [1] was above 30 µM.
For `COC1=C(C(C)C)C(=O)c2ccc(-c3ccccc3)nc2C1=O`, in data set [1], the IC50 came to 4.12 µM.
Regarding `COc1c(OC(C)=O)c2c(c(OC(C)=O)c1C(C)C)C(=O)C[C@H]1C(C)(C)CCC[C@]1(O)C2`, the IC50 in data set [1] stood at 19.4 µM.
On the same count and under the same terms, for `COc1c2c(c(OC)c(C(C)C)c1OC)C(=O)C[C@H]1C(C)(C)CCC[C@]1(O)C2` the value was above 10 µM; for `COc1cc(CC2=CCCC(C)(C)[C@@H]2CC(=O)O)c(OC)c(OC)c1C(C)C`, above 10 µM.
Still for that read-out and setting: next, `COc1c(OC(C)=O)c2c(c(O)c1C(C)C)C(=O)C[C@H]1C(C)(C)CCC[C@]1(O)C2`: 12.5 µM; `COC1=C(C(C)C)C(=O)c2cc3c(nc2C1=O)CCCC3`: 1.39 µM.
As to `COc1cc(COC(Cn2cncn2)c2ccc(F)cc2F)c(OC)c(OC)c1C(C)C` (centres undefined), in data set [3], the Activity entry is “Non-Toxic”. Further, in data set [1], the concentration for half-maximal inhibition (IC50) was determined as 7 µM.
Take `COC1=C(C(C)C)C(=O)C2=C(C[C@@]34CCCC(C)(C)[C@@H]3C[C@]2(O)O4)C1=O` [KOMAROVIQUINONE]: the Activity entry in data set [4] was “Toxic”. For the same compound, the IC50 in data set [1] was found to be 0.65 µM.

By IC50 is commonly meant the concentration that inhibits the measured activity by half.
